Values of other authors as cited in publication PMC7935732 (Targeted Oncology, 2021).

How the values were obtained:
[1] = test system: CDK 4; details: compared with abemaciclib; cited from earlier work
[2] = test system: CDK 6; details: compared with abemaciclib; cited from earlier work

CCN1CCN(Cc2ccc(Nc3ncc(F)c(-c4cc(F)c5nc(CO)n(C(C)C)c5c4)n3)nc2)CC1 [M20]
Inhibitory potency for CDK 4 [1]: comparable inhibitory potencies | Inhibitory potency for CDK 6 [2]: comparable inhibitory potencies

Cc1nc2c(F)cc(-c3nc(Nc4ccc(CN5CCNCC5)cn4)ncc3F)cc2n1C(C)C [M2]
Inhibitory potency for CDK 4 [1]: comparable inhibitory potencies | Inhibitory potency for CDK 6 [2]: comparable inhibitory potencies
